# Experimental data reported in ChEMBL document CHEMBL3232817, “Structural elucidation and synthesis of vialinin C, a new inhibitor of TNF-α production” (Bioorg Med Chem, 2014).
# Test system: RBL-2H3
# Experiment: Inhibition of TNF-alpha production in rat RBL2H3 cells
# Assay type: functional, cell-based
row,Compound,IC50
1,O=C(Oc1c(-c2ccc(O)cc2)c(O)c2oc3cc(O)c(O)cc3c2c1OC(=O)c1ccc(O)cc1)c1ccc(O)cc1,890 nM
2,O=C(Cc1ccccc1)Oc1c(OC(=O)Cc2ccccc2)c(-c2ccc(O)cc2)c(O)c(O)c1-c1ccc(O)cc1 [VIALININ A],0.25 nM
3,O=C(Cc1ccccc1)Oc1c(-c2ccc(O)cc2)c(O)c2oc3cc(O)c(O)cc3c2c1OC(=O)Cc1ccccc1 [VIALININ B],0.05 nM
4,O=C(Oc1c(OC(=O)c2ccc(O)cc2)c(-c2ccc(O)cc2)c(O)c(O)c1-c1ccc(O)cc1)c1ccc(O)cc1,3.5 nM
